# Tests used:
# [1] = biological target: T1, SHP1 (Homo sapiens, UniProt P29350); assay: Thermal shift assay; format: binding; settings: vs DMSO control
# T1 construct: SHP1, residues 245-543; made in house; host or cells: E. coli BL21(DE3)
# Description: Building on the results from the SAR “by‐catalog” study, the following medicinal chemistry effort was prioritized on a systematic survey of the central phenyl scaffold, the sulfonamide linker, and the distal aryl moiety with the goal of a multiparameter optimization of potency and selectivity for SHP1 inhibition as well as drug‐like properties such as aqueous solubility and cell permeability. Additionally, given the crucial requirement for targeted covalent inhibitors to maintain tempered reactivity that enables selective target engagement and reduces cross‐reactivity to by‐standing nucleophiles in the cellular milieu,^[ [74], [75] ^] the medicinal chemistry campaign also sought to lower SHP1 covalent inhibitor reactivity with GSH and cytotoxicity. Careful assessment and evaluation of the SAR and other desirable drug‐like attributes of all synthesized molecules led to the identification of M029 (Figure 2a and Figure S2D, manuscript in preparation). […] To determine the selectivity of M029 for SHP1, we measured the IC50 value for M029‐mediated inhibition of a number of PTPs after a 60‐min preincubation. […]
# The mixtures were centrifuged to remove the unfolded SHP1 proteins, and the supernatants were spiked with a control protein CDC14A, followed by loading into SDS‐PAGE gels to quantify the relative SHP1 level.
# [2] = test system: MC38 colorectal tumors; assay: MC38 syngeneic tumor model; format: in vivo, C57BL/6 mice; settings: IP 15 mg/kg as printed in Figure S5
# [3] = test system: MC38 tumor immune infiltrates; assay: Flow cytometry of MC38 tumor immune infiltrates; format: in vivo, C57BL/6 mice; settings: MC38 tumors
# Experimental: Figure 5 M029 inhibits syngeneic MC38 tumor growth by promoting infiltration and activation of both T cells and NK cells in the tumor microenvironment. […] This T cell activation was further supported by i) the increased effector CD8^+ population in the tumor microenvironment. […] Statistical analyses were performed with Graphpad Prism software 10.4.2 through the student t test or the one‐way ANOVA test using Turkey post‐hoc comparison. *p < 0.05, **p < 0.01, ***p < 0.001, and ****p < 0.0001 were considered significant. Figures are plotted as average ± standard error of the mean (SEM).
# To elucidate the mechanism by which M029 elicits its antitumor activity, we analyzed the immune cell population within the tumor samples. […] This observation is in line with earlier reports that SHP1 activity contributes to LAIR1‐mediated T cell exhaustion.^[ [91] ^]
# For immune cell profiling in the tumor microenvironment, tumor samples were first reduced to single-cell suspensions by compressing the tumors through a 70 µm filter (Falcon, #352350) into cold 1× PBS supplemented with 5 mM EDTA using the plunger of a syringe (HSW, #4010-200V0). Samples were strained through a second filter and then re-suspended in cold blocking buffer made of 5% BSA, 0.5 mM EDTA, and a 1:1000 dilution of CD16/32. Samples were then incubated with following fluorophore-conjugated antibodies. CD4-488 (Biolegend #100423), CD8a-PE (Biolegend #100708), CD45-PeCy7 (Biolegend #103114), CD25-BV605 (Biolegend #102035), CD44-647 (Biolegend #103039), CD19-488 (Biolegend #115524), NK1.1-647 (Biolegend #108719), CD3-PeCy5 (Biolegend #100273), CD8-BV711 (Biolegend #100747), CD4-PeCy5 (Biolegend #100409), CD69-FITC (Biolegend #104505), FoxP3-488 (Biolegend #126405), Perforin-APC (Biolegend #154303), CD62L-BV605 (Biolegend #104437), TIM3-PerCP/Cy5.5 (Biolegend #134011), PD1-647 (Biolegend #109118), CD11b-BV711 (Biolegend #101241), CD206-FITC (Biolegend #141704), F4/80-647 (Biolegend #123122), CD86-PE (Biolegend #159203), CD11c-BV421 (Biolegend #117329), Ly6G-488 (Biolegend #127625), CD11b-APC (Biolegend #101211), Ly6C-PE (Biolegend #128007), F4/80-BV711 (Biolegend #123147), IL2-BV421 (Biolegend #503825), IFNγ-BV605 (Biolegend #505839), TNFα-APC (Biolegend #506307). The following antibodies were used for depletion studies: anti-CD8α (BioXCell #BE0061) and anti-NK1.1 (BioXCell #BE0036). Samples were incubated with antibodies at a 1:600 dilution in blocking buffer on ice for two hours. After staining, samples were washed and re-suspended in 5% BSA, 0.5 mM EDTA solution, then added to a 5 mL polystyrene tube for analysis (Falcon, #352235). Sample data was acquired using a BD LSRFortessa Cell Analyzer, and results were analyzed using FlowJo.
# T1 sequence (P29350 245-543): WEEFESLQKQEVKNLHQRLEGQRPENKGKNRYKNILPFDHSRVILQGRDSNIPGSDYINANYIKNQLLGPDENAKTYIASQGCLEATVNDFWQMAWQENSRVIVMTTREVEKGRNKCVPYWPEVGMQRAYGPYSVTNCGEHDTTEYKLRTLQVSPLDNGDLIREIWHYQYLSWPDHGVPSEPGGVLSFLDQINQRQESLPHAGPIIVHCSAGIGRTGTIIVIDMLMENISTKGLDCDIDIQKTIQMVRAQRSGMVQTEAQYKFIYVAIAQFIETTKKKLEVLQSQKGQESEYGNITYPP
smiles,measurement,setting,value
"N#Cc1ccsc1NS(=O)(=O)c1ccc(NC(=O)CCl)cc1 [M029, 2-Chloro-N-(4-(N-(3-cyanothiophen-2-yl)sulfamoyl)phenyl)acetamide]",decrease in SHP1 protein melting temperature,[1],1.8 °C
same,"MC38 tumor progression, IP dosage",[2],delayed MC38 tumor progression
same,late exhaustion T cells (PD1+TIM3+),[3],a decline
same,pre-exhausted PD1+TIM3− T cells,[3],increased
same,activation marker CD25 on infiltrating CD8+ T cells,[3]; 25 mg/kg,higher expression
same,activation of tumor-infiltrating NK cells (CD69),[3]; 25 mg/kg,significantly more activated
same,cytotoxicity marker perforin on infiltrating CD8+ T cells,[3]; 25 mg/kg,higher expression
same,effector markers CD44+CD62L− on infiltrating CD8+ T cells,[3]; 25 mg/kg,higher expression
same,infiltration of cytotoxic CD8+ T cells,[3]; 25 mg/kg,increased infiltration
same,increase of CD3+ T cells in tumor,"[3]; 25 mg/kg, vs control",~33%
same,increase of NK1.1+ NK cells in tumor,"[3]; 25 mg/kg, vs control",~100%

# Reference: article PMC12833730, “Discovery of a First‐in‐Class Covalent Allosteric SHP1 Inhibitor with Immunotherapeutic Activity” (Angewandte Chemie (International Ed. in English), 2025)
